# Measured values published in patent US20240342138A1, “MICROTUBULE TARGETING AGENTS” (BPGbio, Inc., priority 2023, published 2024).
# Legend:
# U87 cells = experiment: In vitro potency in glioblastoma cells, Realtime-Glo assay; type: cell-based; conditions: Homo sapiens, U-87 MG, FIG. 14A, read-out: In vitro potency (anti-cancer activity)
# Text: (§1) FIG. 14A-14E show the efficacy of Compound 1 in glioblastoma cell lines in vitro and in a glioblastoma rat model (C6). A) In vitro potency of Compound 1 in four different glioblastoma cell lines as evaluated by Realtime-Glo™ assay (C6, and U87 cells) or ATPlite 1Step™ Perkin Elmer (performed by NTRC Oncolines; T98G and A-172 cells). B) Study design overview: C6 rat glioma cells (3×10^5) were implanted into the right entorhinal cortex/subiculum region of male Sprague Dawley rats and tumor burden was assessed 14 days post inoculation using MRI and animals randomized into […] (4) groups (vehicle control, 5 mg/kg, 10 mg/kg, and 20 mg/kg Compound 1) with 4 animals per group. […] C) Body weights were measured every two days. […]
# (§2) Glioblastoma (GBM) is the most common and highly malignant form of primary brain tumor with a poor prognosis despite advances in treatments. […] Accordingly, the in vitro potency of Compound 1 was examined in four different glioblastoma cell lines as evaluated by Realtime-Glo™ assay (C6, and U87 cells) or ATPlite 1Step™ Perkin Elmer (performed by NTRC Oncolines; T98G and A-172 cells). […] Therefore, the in vivo tumor activity of Compound 1 was next assessed in Sprague Dawley rats implanted with C6 rat glioma cells into the right entorhinal cortex/subiculum region (AP: −7 mm; ML: 4.5 mm, DV: 5 mm). […]
# C6 cells = experiment: as above; type: cell-based; conditions: Rattus norvegicus, FIG. 14A, read-out: In vitro potency (anti-cancer activity)
# Text: as §1, §2
# tubulin = target: T1, tubulin (Sus scrofa, UniProt P02550+P02554); experiment: In vitro tubulin polymerization assay (OD based, absorbance 340 nm); type: biochemical, Porcine; conditions: 10 μM and 20 nM; FIG. 1; N=3
# T1 construct: purchased Cytoskeleton Inc. BK006P
# T1 sequence (P02550 whole entry): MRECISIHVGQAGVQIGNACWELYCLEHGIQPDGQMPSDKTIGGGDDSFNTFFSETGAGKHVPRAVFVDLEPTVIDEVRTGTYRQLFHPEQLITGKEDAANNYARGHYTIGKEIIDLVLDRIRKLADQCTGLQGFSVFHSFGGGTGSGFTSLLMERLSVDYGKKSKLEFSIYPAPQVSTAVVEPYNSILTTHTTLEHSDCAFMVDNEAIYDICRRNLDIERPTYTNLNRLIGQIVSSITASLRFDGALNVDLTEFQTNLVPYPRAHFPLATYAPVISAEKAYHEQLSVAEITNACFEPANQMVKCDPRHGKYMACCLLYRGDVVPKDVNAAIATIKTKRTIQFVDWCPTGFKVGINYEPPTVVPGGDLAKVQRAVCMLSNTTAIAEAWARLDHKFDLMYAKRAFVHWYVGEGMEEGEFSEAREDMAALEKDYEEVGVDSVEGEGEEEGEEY
# T1 sequence (P02554 whole entry): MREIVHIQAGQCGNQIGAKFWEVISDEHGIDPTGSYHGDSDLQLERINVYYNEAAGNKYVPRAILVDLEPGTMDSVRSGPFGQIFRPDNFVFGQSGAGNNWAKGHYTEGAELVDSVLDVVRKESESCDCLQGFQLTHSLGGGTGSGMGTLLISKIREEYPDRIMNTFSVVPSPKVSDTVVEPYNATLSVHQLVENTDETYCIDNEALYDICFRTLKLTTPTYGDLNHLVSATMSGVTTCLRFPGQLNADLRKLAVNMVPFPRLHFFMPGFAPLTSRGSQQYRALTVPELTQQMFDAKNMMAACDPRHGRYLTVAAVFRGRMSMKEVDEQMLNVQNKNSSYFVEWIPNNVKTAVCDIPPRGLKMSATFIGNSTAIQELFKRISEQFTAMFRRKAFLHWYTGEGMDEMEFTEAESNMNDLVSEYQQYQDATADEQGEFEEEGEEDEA
# Method: The protocol followed for tubulin polymerization is according to the manufacturer's protocol. The following components were diluted as follows: • A vial of lyophilized GTP was diluted in 100 μl of sterile water and made into 10 μl aliquots and stored at −80° C. • Tubulin was diluted to 10 mg/ml in buffers+GTP as recommended, flash frozen in liquid nitrogen and stored at −80° C. • Paclitaxel was diluted to 2 mM in DMSO
# The half area 96-well plate provided by kit manufacturer was allowed to warm up to 37° C. for 30 mins in the Molecular Devices M5 plate reader. The Compound 1 and nocodazole were diluted in DMSO to a concentration of 2 mM, followed by dilution of these working stocks in the General Tubulin Buffer (GTB-provided in the kit) to a 10× the final well concentration and final well volume of 10 μl. Same was done with the 2 mM Paclitaxel stock. Once the plate was warmed up, the compounds were added in duplicates to the wells. […] The plate was placed at 37° C. in the plate reader for 3 minutes. […] The experimental setup was as follows: • Absorbance read: 340 nm • Temperature: 37° C. • Shake: 5 s at medium speed prior to first read. • Read: The absorbance was read every 1 min for 90 minutes (total 91 reads).
# The values were normalized to the first read by designating the first read as ‘0’ subtracting the value of the first read from the following reads. […]
# [1] = system: Triple Negative Breast Cancer patient-derived organoids CTG-1520, CTG-0896, CTG-1017; experiment: Viability of PDO models of taxane resistance (CellTiter-Glo, 5 days); type: cell-based, human
# Method: FIGS. 9A and 9B show potency of Compound 1 in patient-derived organoid (PDO) models of taxane resistance. Patient-derived organoids were treated with Compound 1, paclitaxel or controls (0.1% DMSO, positive control—10% DMSO) for 5 days. Viability was assessed using the CellTiter-Glo® assay. IC50 and maximal (max) inhibition values were extrapolated from the viability curves. A) Model overview and dose response curves to Compound 1 and paclitaxel. B) Summary of CellTiter-Glo results in all three models tested. Compiled data of N=4 replicates.
# CTG-1520 and CTG-0896 were derived from Triple Negative Breast Cancer (TNBC) patients post-treatment, and progression on a taxane-based therapy and the models' resistance to paclitaxel was confirmed by testing in vivo PDX (Patient-derived xenograft) tumor growth. […] Compound 1 and paclitaxel were tested head-to-head in each model in a dose-curve setting. 10% DMSO was used as the positive control for induction of 100% cell cytotoxicity.
smiles,measurement,setting,value
"COc1ccccc1-c1nc(CNC(=O)c2ccccc2OC(F)F)n[nH]1 [Compound 1, 2-(difluoromethoxy)-N-[[5-(2-methoxyphenyl)-1H-1,2,4-triazol-3-yl]methyl]benzamide]",IC50,U87 cells,89 nM
same,IC50,C6 cells,42 nM
same,"Microtubule polymerization (absorbance at 340 nm, Vmax)",tubulin,inhibits microtubule polymerization
same,Potency in PDO models,"[1]; CTG-1520, CTG-0896, CTG-1017, FIG. 9",potent in all three (3) PDO models tested
same,Retention of potency in matched PDO models,[1]; same patient before (CTG-1017) and after (CTG-1520) taxane-based chemotherapy,retained potency
